Test results published in paper PMC7827406, “Structure–Activity Relationship (SAR) Study of Spautin-1 to Entail the Discovery of Novel NEK4 Inhibitors” (International Journal of Molecular Sciences, 2021).
Where two headings read alike, the source gives them in different places.

How the values were obtained:
Test in all cases: biochemical
Parameters in all cases: Eurofins KinaseProfiler full panel at Km ATP, residual kinase activity (%) relative to DMSO
[1] = biological target: T1, Flt3(h) (Homo sapiens, UniProt P36888)
T1 sequence (P36888 1-993): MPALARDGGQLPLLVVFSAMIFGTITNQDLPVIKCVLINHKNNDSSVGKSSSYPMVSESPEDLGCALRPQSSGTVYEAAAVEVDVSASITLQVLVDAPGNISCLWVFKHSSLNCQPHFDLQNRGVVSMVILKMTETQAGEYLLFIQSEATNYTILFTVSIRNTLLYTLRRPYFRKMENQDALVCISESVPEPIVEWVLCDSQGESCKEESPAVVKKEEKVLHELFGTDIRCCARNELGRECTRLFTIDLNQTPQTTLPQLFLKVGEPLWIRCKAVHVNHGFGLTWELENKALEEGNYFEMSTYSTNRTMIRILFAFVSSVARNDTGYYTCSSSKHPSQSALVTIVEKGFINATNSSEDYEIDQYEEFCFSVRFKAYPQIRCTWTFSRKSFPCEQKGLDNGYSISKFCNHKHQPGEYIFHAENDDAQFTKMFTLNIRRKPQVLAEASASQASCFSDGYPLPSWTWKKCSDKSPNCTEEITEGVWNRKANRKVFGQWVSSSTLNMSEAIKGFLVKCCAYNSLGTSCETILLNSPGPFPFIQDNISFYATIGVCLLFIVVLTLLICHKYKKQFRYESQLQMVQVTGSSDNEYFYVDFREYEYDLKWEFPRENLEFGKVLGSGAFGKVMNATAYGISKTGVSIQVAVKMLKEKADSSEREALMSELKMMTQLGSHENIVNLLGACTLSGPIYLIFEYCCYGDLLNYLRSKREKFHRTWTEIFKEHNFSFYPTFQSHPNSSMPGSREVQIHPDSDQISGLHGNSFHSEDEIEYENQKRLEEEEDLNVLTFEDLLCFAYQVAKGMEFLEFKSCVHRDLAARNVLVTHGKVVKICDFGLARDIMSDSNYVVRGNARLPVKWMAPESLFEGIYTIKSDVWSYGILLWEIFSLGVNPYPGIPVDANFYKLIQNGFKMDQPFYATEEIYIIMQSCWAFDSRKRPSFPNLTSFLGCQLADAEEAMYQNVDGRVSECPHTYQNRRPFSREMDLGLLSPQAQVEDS
Outline: (§1)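 Two 10 µM single-concentration screens were run: a competition-binding screen, in which DNA-tagged kinase bound to immobilized ligands was quantified by qPCR, and a radiometric activity panel at Km ATP. Each is expressed as residual kinase activity (%).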

[2] = biological target: CaMKK1(h) (Homo sapiens, UniProt Q8N5S9)
Outline: as §1

[3] = biological target: T2, PI3 Kinase (p110d/p85a)(m) (Mus musculus, UniProt O35904)
T2 construct: gene Pik3cd
Outline: as §1

[4] = biological target: T3, TSSK3(h) (Homo sapiens, UniProt Q96PN8)
T3 sequence (Q96PN8 1-268): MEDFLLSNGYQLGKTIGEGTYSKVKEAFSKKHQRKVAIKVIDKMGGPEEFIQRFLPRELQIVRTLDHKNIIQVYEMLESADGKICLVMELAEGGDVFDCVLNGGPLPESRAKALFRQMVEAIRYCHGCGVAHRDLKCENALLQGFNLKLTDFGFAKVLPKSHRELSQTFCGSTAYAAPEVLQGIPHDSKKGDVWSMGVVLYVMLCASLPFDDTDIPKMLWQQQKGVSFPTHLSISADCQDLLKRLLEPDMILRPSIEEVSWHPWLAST
Outline: as §1

[5] = biological target: T4, IKKε(h) (Homo sapiens, UniProt Q14164)
T4 construct: gene IKBKE
T4 sequence (Q14164 1-716): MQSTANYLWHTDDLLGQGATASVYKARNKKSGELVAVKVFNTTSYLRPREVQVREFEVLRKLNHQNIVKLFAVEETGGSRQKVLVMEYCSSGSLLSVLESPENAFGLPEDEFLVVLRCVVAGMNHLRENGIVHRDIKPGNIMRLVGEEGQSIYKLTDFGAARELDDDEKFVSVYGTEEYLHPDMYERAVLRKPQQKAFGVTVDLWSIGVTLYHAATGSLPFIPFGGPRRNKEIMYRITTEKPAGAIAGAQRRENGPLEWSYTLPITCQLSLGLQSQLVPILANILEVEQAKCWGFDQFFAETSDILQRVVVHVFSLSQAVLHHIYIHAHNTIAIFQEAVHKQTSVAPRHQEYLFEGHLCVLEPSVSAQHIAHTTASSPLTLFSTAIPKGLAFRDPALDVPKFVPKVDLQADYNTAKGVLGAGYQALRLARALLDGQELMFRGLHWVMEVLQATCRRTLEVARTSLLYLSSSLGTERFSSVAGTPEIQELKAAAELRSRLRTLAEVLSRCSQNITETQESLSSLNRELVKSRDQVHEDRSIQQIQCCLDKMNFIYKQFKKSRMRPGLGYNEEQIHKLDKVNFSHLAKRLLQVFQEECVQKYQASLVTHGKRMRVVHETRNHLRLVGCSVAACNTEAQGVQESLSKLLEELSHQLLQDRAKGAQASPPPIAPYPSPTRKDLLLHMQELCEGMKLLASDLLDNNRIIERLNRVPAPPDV
Outline: as §1

[6] = biological target: NEK4 (Homo sapiens, UniProt P51957)
Outline: as §1

[7] = read-out: Residual activity (%) Spautin-1 5aa
[8] = read-out: Residual activity (%) 5as
[9] = read-out: Residual activity (%) 5at
[10] = read-out: Residual activity (%) 5ay

Sequence of CaMKK1(h) (Q8N5S9 whole entry): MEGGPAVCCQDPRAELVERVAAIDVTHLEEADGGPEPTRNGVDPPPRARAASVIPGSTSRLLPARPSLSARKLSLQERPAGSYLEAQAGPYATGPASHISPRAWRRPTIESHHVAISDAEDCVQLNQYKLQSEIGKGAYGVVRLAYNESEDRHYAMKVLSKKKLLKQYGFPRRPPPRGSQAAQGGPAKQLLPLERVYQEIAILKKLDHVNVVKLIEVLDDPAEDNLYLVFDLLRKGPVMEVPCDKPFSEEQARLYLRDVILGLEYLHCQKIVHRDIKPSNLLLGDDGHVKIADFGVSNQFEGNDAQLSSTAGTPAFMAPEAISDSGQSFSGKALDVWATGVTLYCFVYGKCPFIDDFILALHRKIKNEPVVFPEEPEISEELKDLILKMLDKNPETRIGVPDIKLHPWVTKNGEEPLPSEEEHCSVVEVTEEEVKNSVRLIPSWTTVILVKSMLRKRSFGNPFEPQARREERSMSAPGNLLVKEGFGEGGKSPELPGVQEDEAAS
Sequence of NEK4 (P51957 whole entry): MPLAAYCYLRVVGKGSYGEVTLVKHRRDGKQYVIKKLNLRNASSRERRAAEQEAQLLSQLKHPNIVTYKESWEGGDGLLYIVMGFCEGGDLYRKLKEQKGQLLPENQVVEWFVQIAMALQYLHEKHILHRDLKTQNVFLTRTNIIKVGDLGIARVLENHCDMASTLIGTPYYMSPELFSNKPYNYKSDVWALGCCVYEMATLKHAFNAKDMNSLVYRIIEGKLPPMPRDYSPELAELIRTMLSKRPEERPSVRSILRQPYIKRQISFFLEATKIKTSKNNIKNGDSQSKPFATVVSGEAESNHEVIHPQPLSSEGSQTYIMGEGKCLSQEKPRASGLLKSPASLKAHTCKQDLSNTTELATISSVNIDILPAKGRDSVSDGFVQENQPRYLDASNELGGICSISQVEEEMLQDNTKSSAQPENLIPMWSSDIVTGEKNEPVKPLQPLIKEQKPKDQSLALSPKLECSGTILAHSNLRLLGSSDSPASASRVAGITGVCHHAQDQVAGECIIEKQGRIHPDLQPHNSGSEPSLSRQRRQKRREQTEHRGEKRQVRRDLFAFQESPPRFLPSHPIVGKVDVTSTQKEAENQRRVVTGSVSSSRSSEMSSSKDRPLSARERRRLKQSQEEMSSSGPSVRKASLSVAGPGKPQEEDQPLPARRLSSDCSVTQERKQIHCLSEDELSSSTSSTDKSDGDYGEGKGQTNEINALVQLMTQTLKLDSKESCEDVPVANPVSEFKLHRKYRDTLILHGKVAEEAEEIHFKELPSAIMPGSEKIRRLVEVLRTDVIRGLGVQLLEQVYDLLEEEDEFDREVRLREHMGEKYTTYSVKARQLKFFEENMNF
T2 sequence (O35904 whole entry): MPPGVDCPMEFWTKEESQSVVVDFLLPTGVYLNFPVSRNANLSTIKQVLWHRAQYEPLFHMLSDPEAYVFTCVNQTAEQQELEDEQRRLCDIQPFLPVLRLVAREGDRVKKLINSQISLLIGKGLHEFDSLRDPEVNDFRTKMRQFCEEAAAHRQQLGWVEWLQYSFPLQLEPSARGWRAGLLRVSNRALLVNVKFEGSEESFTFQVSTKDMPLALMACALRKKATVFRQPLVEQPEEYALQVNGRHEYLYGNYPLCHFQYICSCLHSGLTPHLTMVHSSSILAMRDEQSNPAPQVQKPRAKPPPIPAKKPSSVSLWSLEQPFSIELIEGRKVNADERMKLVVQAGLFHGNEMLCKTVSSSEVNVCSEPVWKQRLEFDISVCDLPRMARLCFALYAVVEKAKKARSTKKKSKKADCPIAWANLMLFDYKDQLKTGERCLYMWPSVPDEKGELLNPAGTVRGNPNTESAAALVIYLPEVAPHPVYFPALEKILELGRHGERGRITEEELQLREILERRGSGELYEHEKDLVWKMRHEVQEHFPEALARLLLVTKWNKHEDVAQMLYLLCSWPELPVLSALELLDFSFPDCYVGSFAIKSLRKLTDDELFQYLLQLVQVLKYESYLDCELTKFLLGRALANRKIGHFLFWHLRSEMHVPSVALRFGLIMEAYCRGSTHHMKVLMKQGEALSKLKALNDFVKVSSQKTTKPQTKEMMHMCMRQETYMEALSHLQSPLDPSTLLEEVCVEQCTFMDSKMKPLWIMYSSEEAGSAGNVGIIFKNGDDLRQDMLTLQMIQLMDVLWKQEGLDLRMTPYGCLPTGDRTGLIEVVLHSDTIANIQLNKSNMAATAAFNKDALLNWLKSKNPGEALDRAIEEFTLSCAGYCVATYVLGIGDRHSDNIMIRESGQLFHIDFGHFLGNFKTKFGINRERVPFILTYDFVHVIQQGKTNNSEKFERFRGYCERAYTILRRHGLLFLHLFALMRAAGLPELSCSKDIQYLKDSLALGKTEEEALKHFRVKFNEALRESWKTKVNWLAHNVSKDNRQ
T2 sequence (P26450 whole entry partner): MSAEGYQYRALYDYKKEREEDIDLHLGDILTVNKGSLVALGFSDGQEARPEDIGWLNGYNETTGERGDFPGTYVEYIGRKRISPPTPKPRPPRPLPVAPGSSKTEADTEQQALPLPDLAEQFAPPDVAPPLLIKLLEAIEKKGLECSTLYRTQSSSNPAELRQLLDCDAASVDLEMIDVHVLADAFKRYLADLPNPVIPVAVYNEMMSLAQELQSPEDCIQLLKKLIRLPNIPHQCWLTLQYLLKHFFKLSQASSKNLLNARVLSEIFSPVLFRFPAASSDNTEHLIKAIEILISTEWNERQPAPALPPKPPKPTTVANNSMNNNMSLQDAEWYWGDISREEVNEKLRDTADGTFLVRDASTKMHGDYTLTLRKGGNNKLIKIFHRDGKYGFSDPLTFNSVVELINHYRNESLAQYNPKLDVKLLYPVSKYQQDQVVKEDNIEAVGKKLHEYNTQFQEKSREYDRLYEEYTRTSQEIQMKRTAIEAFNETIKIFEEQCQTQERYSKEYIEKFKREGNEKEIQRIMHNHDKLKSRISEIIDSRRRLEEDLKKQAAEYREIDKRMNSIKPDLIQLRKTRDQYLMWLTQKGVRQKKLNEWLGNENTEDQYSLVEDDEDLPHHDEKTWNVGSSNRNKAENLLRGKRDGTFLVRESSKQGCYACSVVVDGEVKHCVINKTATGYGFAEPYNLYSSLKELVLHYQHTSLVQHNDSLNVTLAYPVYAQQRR

For `Fc1ccc(CNc2ncnc3ccc(F)cc23)cc1` [5aa, 6-Fluoro-N-(4-fluorobenzyl)-4-Quinazolinamine], the remaining activity at 10 µM [1, 7] was 71%, the remaining activity at 10 µM [2, 7] was 96% and the remaining activity at 10 µM [3, 7] was 97%. The remaining activity at 10 µM [4, 7] was 111%, the remaining activity at 10 µM [5, 7] was 64% and the remaining activity at 10 µM [6, 7] was 71%.

`Fc1ccc(CCNc2ncnc3ccc(F)cc23)cc1` [5as, 6-Fluoro-N-[2-(4-Fluorophenyl)Ethyl]-4-Quinazolinamine] was tested, and the remaining activity at 10 µM [1, 8] was 73%, the remaining activity at 10 µM [2, 8] was 99% and the remaining activity at 10 µM [3, 8] was 93%. For the same compound, the remaining activity at 10 µM [4, 8] was 97% and the remaining activity at 10 µM [5, 8] was 72%.

In the case of `Fc1ccc2ncnc(NCCc3ccc(Cl)cc3)c2c1` [5at, N-[2-(4-Chlorophenyl)Ethyl]-6-Fluoro-4-Quinazolinamine], the remaining activity at 10 µM [1, 9] is reported as 62%, the remaining activity at 10 µM [2, 9] is reported as 91% and the remaining activity at 10 µM [3, 9] is reported as 93%. For the same compound, the remaining activity at 10 µM [4, 9] was 95%, the remaining activity at 10 µM [5, 9] was 79% and the remaining activity at 10 µM [6, 9] was 12%.

Work on `COc1ccc2ncnc(Nc3cccc(F)c3)c2c1` [5ay, N-(3-Fluorophenyl)-6-Methoxy-4-Quinazolinamine] yielded a remaining activity at 10 µM [1, 10] of 70%, a remaining activity at 10 µM [2, 10] of 90% and a remaining activity at 10 µM [3, 10] of 96%. It also gave a remaining activity at 10 µM [4, 10] of 104%, a remaining activity at 10 µM [5, 10] of 67% and a remaining activity at 10 µM [6, 10] of 30%.
